PubChem BioAssay AID2765 (Broad Institute, 2010)
Active and inactive are the calls of the source.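 How the source made its calls: active means half-maximal concentration for the rise in caspase light signal at or below ten times the top tested dose; inconclusive means flat fit between 30% and 70% activity, or unreliable curve fit; inactive means the rest.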

Each compound was assayed on MEF A1-2A-BIM cells, caspase 3/7 luminescence, 3 h (assay: caspase activation in A1-2A-BIM MEF cells, dose response, A1 inhibitor project, cell-based, luminescence, retest (AID 2765)).

Q: `CC1CCN(c2ccc3nnc(CCC(=O)NCc4ccco4)n3n2)CC1` was tested. Which EC50 did it give?
A: > 35 µM (inactive)

Q: For `Cc1ccc(NC(=O)c2cc(N3C(=O)C=CC3=O)ccc2N2CCOCC2)cc1Cl`, which EC50 is on record?
A: > 35 µM (inactive)

Q: With `COc1ccc(S(=O)(=O)Nc2ccccc2C(=O)NC2CC2)cc1NC(C)=O` as the compound, how does the EC50 read?
A: > 35 µM (inactive)

Q: For `COc1oc(-c2ccccc2)nc1C(F)(F)F`, which EC50 is on record?
A: > 35 µM (inactive)

Q: How did the EC50 turn out when `CCCCc1ccc(S(=O)(=O)NC2CCS(=O)(=O)C2)cc1` (stereo unspecified) was run?
A: > 35 µM (inactive)

Q: With `O=C(O)c1cn(-c2ccccc2)c(=O)c2ccccc12` as the compound, how does the EC50 read?
A: > 35 µM (inactive)

Q: With `CCN(CC)S(=O)(=O)c1cc(NC(=O)C2Cc3ccccc3C(=O)O2)ccc1C` (stereo unspecified) as the compound, how does the EC50 read?
A: > 35 µM (inactive)

Q: With `CC(NC(=O)c1cccc(OC2CCN(C3CCN(C)CC3)CC2)c1)c1ccccc1` (stereo unspecified) as the compound, how does the EC50 read?
A: > 35 µM (inactive)

Q: How did the EC50 turn out when `O=S(=O)(Nc1nc2ccccc2nc1Cl)c1ccc(Br)cc1` was run?
A: > 35 µM (inactive)

Q: For `Cc1cc(NC(=O)c2ccc3c(c2)C(=O)N(Cc2ccccc2)C3=O)no1`, which EC50 is on record?
A: > 35 µM (inactive)

Q: `CCCOc1ccc(N2C(=O)C3ON(c4ccccc4)C(CCC)C3C2=O)cc1` (stereo unspecified) was tested. Which EC50 did it give?
A: > 35 µM (inactive)

Q: With `O=C(NCC1CCCO1)C1CCN(S(=O)(=O)c2ccc(Br)cc2)CC1` (stereo unspecified) as the compound, how does the EC50 read?
A: > 35 µM (inactive)

Q: With `COc1ccc(S(=O)(=O)NC2CCCC2)cc1C(N)=O` as the compound, how does the EC50 read?
A: > 35 µM (inactive)

Q: `Cc1ccccc1/C=C/C(=O)c1ccc([N+](=O)[O-])o1` was tested. Which EC50 did it give?
A: > 35 µM (inactive)

Q: For `Cc1cc(NC(=O)CN(C)C)c([N+](=O)[O-])cc1C`, which EC50 is on record?
A: > 35 µM (inactive)

Q: `CCOC(=O)C(Cc1ccc(N)cc1)N1C(=O)c2ccccc2C1=O` (stereo unspecified) was tested. Which EC50 did it give?
A: > 35 µM (inactive)

Q: With `COc1ccc(C(=O)NCc2cccnc2)cc1Br` as the compound, how does the EC50 read?
A: > 35 µM (inactive)

Q: Which EC50 does the source give for `N#Cc1ccc(S(=O)(=O)N2CCC(N3CCCCC3)CC2)cc1` here?
A: > 35 µM (inactive)

Q: `Cc1ccc(NC(=O)c2ccc(Cl)c(N3C(=O)C=CC3=O)c2)cc1` was tested. Which EC50 did it give?
A: > 35 µM (inactive)

Q: Which EC50 does the source give for `COc1ccc(C)cc1S(=O)(=O)n1cnc2ccccc21` here?
A: > 35 µM (inactive)

Q: Which EC50 does the source give for `COc1ccc2c(c1)c(=O)c(C(=O)c1ccc(F)cc1)cn2CC(=O)Nc1ccc(F)cc1` here?
A: > 35 µM (inactive)

Q: Which EC50 does the source give for `CC(C)[C@H]1CN=C2N(CCNC(=O)CCC3CCCCC3)[C@H](Cc3ccc(O)cc3)CN21` here?
A: > 35 µM (inactive)

Q: Which EC50 does the source give for `CCN(CC)C(=O)CCCc1c[nH]c2ccccc12` here?
A: > 35 µM (inactive)

Q: For `Cc1noc(C)c1S(=O)(=O)N(C)C[C@H]1Oc2ccc(NC(=O)CCC(F)(F)F)cc2C(=O)N([C@H](C)CO)C[C@@H]1C`, which EC50 is on record?
A: > 35 µM (inactive)

Q: How did the EC50 turn out when `CCN1CCN(CC(=O)Nc2cc(F)ccc2C)CC1` was run?
A: > 35 µM (inactive)

Q: `CCOC(=O)C(=Cc1ccc(OCc2ccc([N+](=O)[O-])cc2)c(OC)c1)C(=O)OCC` was tested. Which EC50 did it give?
A: > 35 µM (inactive)

Q: `CCN(CC)c1ccc(C=NCCc2ccc(S(N)(=O)=O)cc2)cc1` was tested. Which EC50 did it give?
A: > 35 µM (inactive)

Q: For `O=S1(=O)C=C(Sc2nc3ccccc3s2)c2ccccc21`, which EC50 is on record?
A: > 35 µM (inactive)

Q: For `CC(=O)[C@]1(O)Cc2c(O)c3c(c(O)c2[C@@H](O[C@H]2C[C@H](N)[C@H](O)[C@H](C)O2)C1)C(=O)c1ccccc1C3=O`, which EC50 is on record?
A: > 35 µM (inactive)

Q: Which EC50 does the source give for `CCOC(=O)Cc1csc(/N=C/c2c(O)n(-c3ccc(C)c(C)c3)c(=O)c3ccccc23)n1` here?
A: 9.23 µM

Q: With `O=C(CSc1nc2ncc(Br)cc2[nH]1)c1ccc([N+](=O)[O-])cc1` as the compound, how does the EC50 read?
A: > 35 µM (inactive)

Q: Which EC50 does the source give for `CC(C)CCN(C(=O)Cc1ccc(Cl)c(Cl)c1)c1c(N)n(Cc2ccccc2)c(=O)[nH]c1=O` here?
A: 12 µM

Q: How did the EC50 turn out when `O=C(O)CCC(=NNC(=O)c1cccc(S(=O)(=O)N2CCCCC2)c1)c1ccccc1` was run?
A: > 35 µM (inactive)

Q: `Cc1ccccc1Nc1nc(-c2sc(NC(=O)c3cccc(Cl)c3)nc2C)cs1` was tested. Which EC50 did it give?
A: > 35 µM (inactive)

Q: For `C[C@@H]1CN([C@@H](C)CO)C(=O)c2cc(NS(=O)(=O)c3ccc(Cl)cc3)ccc2O[C@H]1CN(C)Cc1ccncc1`, which EC50 is on record?
A: > 35 µM (inactive)

Q: With `CC(C)C[C@H](NC(=O)N1CCn2c1nc1ccccc12)C(=O)NCc1ccccc1` as the compound, how does the EC50 read?
A: > 35 µM (inactive)

Q: For `CC(=O)c1ccc(N(C(=O)c2csnn2)C(C(=O)NC(C)(C)C)c2cccs2)cc1` (stereo unspecified), which EC50 is on record?
A: > 35 µM (inactive)

Q: With `COc1ccc(-c2ccc3c(c2)S(=O)(=O)c2cccc(C(=O)NC[C@@H]4CCCO4)c2C3=O)cc1OC` as the compound, how does the EC50 read?
A: > 35 µM (inactive)

Q: Which EC50 does the source give for `CCCCNC(=O)c1ccc2nc(-c3ccco3)c(-c3ccco3)nc2c1` here?
A: > 35 µM (inactive)

Q: How did the EC50 turn out when `COc1ccc2[nH]c3c(=O)n(/N=C/[C@H]4C(C)C=C(C)CC4C)c(=O)[nH]c3c2c1` (stereo partly specified) was run?
A: 16 µM

Q: For `Cc1cc(=O)oc2cc(OCCC[n+]3ccccc3)ccc12`, which EC50 is on record?
A: > 35 µM (inactive)

Q: For `CSCCC(NS(=O)(=O)c1ccc(C)cc1)C(=O)NCCc1c[nH]c2ccccc12` (stereo unspecified), which EC50 is on record?
A: > 35 µM (inactive)

Q: For `CCC(C)Nc1nnc(SCC(=O)c2c(N)n(C3CC3)c(=O)[nH]c2=O)s1` (stereo unspecified), which EC50 is on record?
A: > 35 µM (inactive)

Q: With `CCNC(=O)/C(C#N)=C/c1c(N2CCN(C)CC2)nc2c(C)cccn2c1=O` as the compound, how does the EC50 read?
A: > 35 µM (inactive)

Q: With `O=C(Nc1ccc(Cl)cc1Cl)c1cccc(N2C(=O)C=CC2=O)c1` as the compound, how does the EC50 read?
A: > 35 µM (inactive)

Q: `N#C/C(=C\c1ccc(N2CCOCC2)o1)c1ccccc1` was tested. Which EC50 did it give?
A: > 35 µM (inactive)
